In patent US4596804A, “Dibenz[b,e]oxepin compounds” (Kyowa Hakko Kogyo Co., Ltd., priority 1983, dated 1986):
Counter-ions that a name gives are not always drawn.

How the values were obtained:
[1] = tested on: male dd strain mice; assay: Acute toxicity (minimum lethal dose); assay type: in vivo; settings: mortality seven days after administration; for Acute Toxicity (MLD) ip: intraperitoneal
Description: The present compound was administered orally (p.o. 300 mg/kg) or intraperitoneally (i.p. 100 mg/kg) to several groups of male dd strain mice weighing 19 to 21 g (each group consisting of three mice), and MLD (minimum lethal dose) was determined by observing the mortality seven days after administration.

[2] = tested on: passive cutaneous anaphylaxis (PCA) reaction; assay: 48-hour homologous PCA (passive cutaneous anaphylaxis) test in rats, antiallergic activity; assay type: in vivo, male Wistar strain rats; settings: minimum dose with at least one positive among three rats; for minimal effective dose: Rattus norvegicus, po, read-out: Antiallergic Activity, MED (minimum effective dose); for Antiallergic Activity, MED (minimum effective dose): oral
Description: The 48-hour homologous PCA (passive cutaneous anaphylaxis) test was employed. As test animals, male Wistar strain rats weighing 180 to 220 g were used for preparation of antiserum and those weighing 120 to 140 g for PCA test.
(A) Preparation of rat antiserum to EWA
Rat antiserum to egg white albumin (EWA) was prepared by the method of Stotland Share [Canad. J. Physiol. Pharmacol. 52, 1114 (1974)] as follows. One mg of EWA was mixed with 20 mg of aluminum hydroxide gel and 0.5 ml of pertussis/diphtheria/tetanus mixed vaccine, and the mixture was subcutaneously injected to each rat through the sole in four portions. After 14 days, blood samples were taken from the carotid artery, and the serum was separated and stored at -80° C. The 48-hour homologous PCA titer of this antiserum was 1:32.
(B) 48-hour homologous PCA test in rats
Three rats for each group were employed for 48-hour homologous PCA test. Rats were passively sensitized by injecting intradermally at the two spots on the shaved back 0.05 ml portions of the antiserum which was diluted 8-fold with physiological saline. After 47 hours, test compounds or the solutions thereof (physiological saline solution or CMC solution) were orally administered to the rats, and after one hour, the animals were injected intraveneously to tail vein 0.5 ml/100 g body weight of saline containing 2 mg of EWA, together with 1% Evans blue. Thirty minutes after antigen challenge, the rats were sacrificed by exanguination, and the skin was cut out, followed by the evaluation of the intensity of PCA reaction by expressing the amounts of dye leaked. The amounts of dye leaked from the blue-stained section were measured by the metod of Katayama, et al [Microbiol. Immunol. 22, 89 (1978)] as follows. A portion of the blue-stained section cut out with scissors was placed in a test tube containing 1 ml of 1N KOH solution, and incubated at 37° C. for 24 hours. 9 ml of a mixture of 0.6N phosphoric acid and acetone (5:13) was added, and the mixture was shaken and subjected to centrifugation at 2500 rpm for 10 minutes. Then, the absorbance of the supernatant liquid at 620 mμ was measured, and the amount of eluted dye was determined by using a calibration curve previously prepared. The average of the measurements for the two positions was taken as the value for each individual, and the inhibition rate for each rat was calculated from the following formula: [formula]
PCA inhibiting activity was evaluated as positive when the inhibition rate was 50% or higher, and the minimum dose required to achieve positive result for at least one among the three rats in each group was taken as the minimum effective dose (MED).

SMILES | Acute Toxicity (MLD) ip [1] [mg/kg] | Acute Toxicity (MLD) PO [1] [mg/kg] | minimal effective dose [2] [mg/kg] | Antiallergic Activity, MED (minimum effective dose) [2] [mg/kg]
CN1CCN(C2c3ccccc3COc3ccc(C(=O)O)cc32)CC1 (stereo not drawn) [Compound 3, 11-(4-Methylpiperazino)-6,11-dihydrodibenz[b,e]oxepin-2-carboxylic acid diacetate.2H2 O] | > 100 | > 300 | 1 | –
CN1CCN(C2c3ccccc3COc3ccc(C(N)=O)cc32)CC1 (stereo not drawn) [Compound 4, 11-(4-Methylpiperazino)-6,11-dihydrodibenz[b,e]oxepin-2-carboamide] | > 100 | > 300 | 10 | –
CN1CCN(C2c3ccccc3COc3ccc(-c4nnn[nH]4)cc32)CC1 (stereo not drawn) [Compound 6, 11-(4-Methylpiperazino)-2-(5-tetrazolyl)-6,11-dihydrodibenz[b,e]oxepin Na salt] | > 100 | > 300 | 10 | –
CCOC(=O)c1ccc2c(c1)C(SCCN(C)C)c1ccccc1CO2 (stereo not drawn) [Compound 7, 11-(N,N--dimethylaminoethyl)thio-6,11-dihydrodibenz[b,e]oxepin-2-carboxylic acid ethyl ester] | > 100 | > 300 | 10 | –
CN(C)CCSC1c2ccccc2COc2ccc(C(=O)O)cc21 (stereo not drawn) [Compound 8, 11-(N,N--dimethylaminoethyl)thio-6,11-dihydrodibenz[b,e]oxepin-2-carboxylic acid acetate] | > 100 | > 300 | – | 10
CN(C)CCSC1c2ccccc2COc2ccc(C#N)cc21 (stereo not drawn) [Compound 10, 11-(N,N--dimethylaminoethyl)thio-6,11-dihydrodibenz[b,e]oxepin-2-carbonitrile] | > 100 | > 300 | 1 | –
CCOC(=O)c1ccc2c(c1)C(OCCN(C)C)c1ccccc1CO2 (stereo not drawn) [Compound 11, 11-(N,N--dimethylaminoethyl)oxy-6,11-dihydrodibenz[b,e]oxepin-2-carboxylic acid ethyl ester] | > 100 | > 300 | 1 | –
CN(C)CCNC1c2ccccc2COc2ccc(C(N)=O)cc21 (stereo not drawn) [Compound 14, 11-(N,N--dimethylaminoethyl)amino-6,11-dihydrodibenz[b,e]oxepin-2-carboamide] | > 100 | 300 | 1 | –
CCOC(=O)c1ccc2c(c1)C(NC1CN3CCC1CC3)c1ccccc1CO2 (stereo not drawn) [Compound 17, 11-(3-Quinuclidinyl)amino-6,11-dihydrodibenz[b,e]oxepin-2-carboxylic acid ethyl ester] | > 100 | > 300 | 0.1 | –
CCOC(=O)OC(C)OC(=O)c1ccc2c(c1)C(N1CCN(C)CC1)c1ccccc1CO2 (stereo not drawn) [Compound 19, 11-(4-Methylpiperazino)-6,11-dihydrodibenz[b,e]oxepin-2-carboxylic acid (1-ethoxycarbonyloxy)ethyl ester] | > 100 | > 300 | 1 | –
CCOC(=O)OC(C)OC(=O)c1ccc2c(c1)C(SCCN(C)C)c1ccccc1CO2 (stereo not drawn) [Compound 20, 11-(N,N--dimethylaminoethyl)thio-6,11-dihydrodibenz[b,e]oxepin-2-carboxylic acid (1-ethoxycarbonyloxy)ethyl ester] | > 100 | > 300 | 0.1 | –
CN1CCN(C2c3ccccc3COc3ccc(C(=O)O)cc32)CC1 (stereo not drawn) [Compound 21, 11-(4-Methylpiperazino)-6,11-dihydrodibenz[b,e]oxepin-2-carboxylic acid dihydrochloride.1/4H2 O] | > 100 | > 300 | – | 1
CN(C)CCSC1c2ccccc2COc2ccc(C(=O)O)cc21 (stereo not drawn) [Compound 22, 11-(N,N--dimethylaminoethyl)thio-6,11-dihydrodibenz[b,e]oxepin-2-carboxylic acid hydrochloride.1/2H2 O] | > 100 | > 300 | – | 0.1
